Nine compounds from ChEMBL document CHEMBL3046378, “3-(6-Chloronicotinyl)-2-nitromethylene-thiazolidine as a New Class of Insecticide Acting against Lepidoptera Species” (1992) can be followed below.

For experiment [1], the system named is Nephotettix cincticeps. Put plainly: Insecticidal activity against Nephotettix cincticeps (green rice leafhopper) measured 5 days after artificial infestation. In kind it is functional.
The subject of experiment [2] is Cnaphalocrocis medinalis. Put plainly: Insecticidal activity against Cnaphalocrocis medinalis measured 5 days after artificial infestation. The class given is functional.
In experiment [3] the test system is Spodoptera litura. Put plainly: Insecticidal activity against Spodoptera litura measured 5 days after artificial infestation. In kind it is functional.
The subject of experiment [4] is Plutella xylostella. Put plainly: Insecticidal activity against Plutella xylostella (diamondback moth) measured 5 days after artificial infestation. In kind it is functional.
Experiment [5] has as its system Spodoptera litura. Put plainly: Insecticidal activity against Spodoptera litura at 1000 ppm measured 5 days after artificial infestation. The class given is functional, organism-based.

Calls of active or inactive are those of the source. The rule behind the calls is not given here.

As for `O=[N+]([O-])/C=C1\NCCN1Cc1ccc(Cl)nc1`, the LC90 in experiment [1] is recorded as 0.32 ppm; in experiment [2], 200 ppm; in experiment [3] it was 8 ppm; in experiment [4] it was 40 ppm.
With `O=[N+]([O-])/N=C1\NCCN1Cc1ccc(Cl)nc1` [IMIDACLOPRID], the LC90 in experiment [1] is 0.32 ppm; in experiment [2] it was 200 ppm; in experiment [3] it was 40 ppm; in experiment [4], 200 ppm.
`O=[N+]([O-])/C=C1\NCCS1` [2-(NITROMETHYLENE)THIAZOLIDINE] gave an LC90 in experiment [1] of 1000 ppm. Moreover, the result in experiment [5] was inactive.
In the case of `O=[N+]([O-])C=C1NCCCS1`, the LC90 amounted to 8 ppm in experiment [1], 200 ppm in experiment [2], 40 ppm in experiment [3] and 1000 ppm in experiment [4].
As for `O=[N+]([O-])/N=c1\sccn1Cc1ccc(Cl)nc1`, the values for the LC90 in experiment [1] and in experiment [3] were 0.32 ppm and 1000 ppm, respectively.
The like results for `O=[N+]([O-])/N=C1\SCCN1Cc1ccc(Cl)nc1` were, in that order, 1.6 ppm and 200 ppm.
The like results for `O=[N+]([O-])/C=C1\CCCN1Cc1ccc(Cl)nc1` were, in that order, 1.6 ppm and 200 ppm.
The like results for `O=[N+]([O-])/C=C1\OCCN1Cc1ccc(Cl)nc1` were, in that order, 8 ppm and 1000 ppm.
Consider `O=[N+]([O-])/C=C1\SCCN1Cc1ccc(Cl)nc1`, for which the LC90 in experiment [1] was 0.32 ppm; in experiment [2] it was 8 ppm; in experiment [3], 1.6 ppm; in experiment [4] it was 1.6 ppm.
